How the values were obtained:
[1] = molecular target: NPM-ALK fusion protein (Homo sapiens, UniProt P06748+Q9UM73); assay: NPM-ALK fusion protein levels in SU-DHL-1 cells by western blot; assay type: cell-based; settings: for duration of NPM-ALK degradation and ALK signaling inhibition / time at which significant (>50%) NPM-ALK degradation was achieved / time of maximum degradation of NPM-ALK / effect on fused ALK (NPM-ALK) protein levels: 30 nM; for duration of NPM-ALK degradation and ALK signaling inhibition / time at which significant (>50%) NPM-ALK degradation was achieved / time of maximum degradation of NPM-ALK: time course; for reduction of the ALK fusion protein levels: 100 nM; for reduction of the ALK fusion protein levels / effect on fused ALK (NPM-ALK) protein levels: 16 h; for hook effect: up to 100 nM degrader
[2] = tested on: ALK tyrosine 1507 (Y1507) phosphorylation (Y527 in NPM-ALK); assay: ALK Y1507 phosphorylation in SU-DHL-1 cells by western blot; assay type: cell-based, human; settings: for inhibition at 0.1 µM: Homo sapiens, read-out: inhibition of ALK Y1507 phosphorylation; for treatment time after which p-ALK was significantly inhibited: SU-DHL-1 cells, 30 nM, time course
[3] = tested on: STAT3 tyrosine 705 (Y705) phosphorylation; assay: STAT3 Y705 phosphorylation in SU-DHL-1 cells by western blot; assay type: cell-based, human; settings: for inhibition at 0.1 µM: Homo sapiens, SU-DHL-1, read-out: inhibition of STAT3 Y705 phosphorylation; for treatment time after which p-STAT3 was significantly inhibited: SU-DHL-1 cells, 30 nM, time course
[4] = tested on: NCI-H2228 cells; assay: NCI-H2228 cell proliferation, CellTiter-Glo cell viability assay; assay type: cell-based, human
[5] = tested on: SU-DHL-1 cells; assay: cell death / toxicity observed in SU-DHL-1 cells during blot experiments; assay type: cell-based
[6] = tested on: EML4-ALK fusion protein variant 3; settings: NCI-H2228 cells; for duration of EML4-ALK degradation and signaling pathway inhibition / time of maximum degradation of EML4-ALK: 60 nM, time course; for reduction of EML4-ALK protein levels / effect on EML4-ALK protein levels: 100 nM, 16 h
[7] = mouse pharmacokinetic; assay type: in vivo, male Swiss Albino mice; settings: single 50 mg/kg IP
[8] = tolerability in the mouse PK study; settings: 50 mg/kg IP
[9] = tested on: ALK downstream signaling (p-ALK, p-STAT3); assay: ALK downstream signaling pathway inhibition in SU-DHL-1 cells by western blot; assay type: cell-based, human; settings: 30 nM
[10] = tested on: SU-DHL-1 cells; assay: SU-DHL-1 cell proliferation, CellTiter-Glo luminescent cell viability assay; assay type: cell-based, human; settings: 3 days

In the case of `Cc1cc(Nc2ncc(Cl)c(Nc3ccccc3S(=O)(=O)C(C)C)n2)c(OC(C)C)cc1C1CCN(CC(=O)NCCOCCOCCOCCOCCOCCNc2cccc3c2C(=O)N(C2CCC(=O)NC2=O)C3=O)CC1` (stereo not shown) [Compound 5, 2-(4-(4-((5-Chloro-4-((2-(isopropylsulfonyl)phenyl)amino)pyrimidin-2-yl)amino)-5-isopropoxy-2-methylphenyl)piperidin-1-yl)-N-(17-((2-(2,6-dioxopiperidin-3-yl)-1,3-dioxoisoindolin-4-yl)amino)-3,6,9,12,15-pentaoxaheptadecyl)acetamide], the “duration of NPM-ALK degradation and ALK signaling inhibition” value [1] is reported as “at least 24 hours”, the “time at which significant (>50%) NPM-ALK degradation was achieved” value [1] is reported as 4 h and the “time of maximum degradation of NPM-ALK” value [1] is reported as 16 h. The “reduction of the ALK fusion protein levels” value [1] was “Over 90%”, the hook effect [1] was “did not observe the “hook effect”” and the inhibition at 0.1 µM [2] was > 90%. For the same molecule, the “treatment time after which p-ALK was significantly inhibited” value [2] was 2 h, the inhibition at 0.1 µM [3] was > 90% and the “treatment time after which p-STAT3 was significantly inhibited” value [3] was 2 h. The “sensitivity of proliferation in comparison with SU-DHL-1 cells” value (“sensitivity of proliferation” for short) [4] was “less sensitive”, the “concentrations leading to significant cell death / toxic to cells” value [5] was “above 100 nM” and the “duration of EML4-ALK degradation and signaling pathway inhibition” value [6] was “at least 24 hours”. The “time of maximum degradation of EML4-ALK” value [6] was 16 h and the “reduction of EML4-ALK protein levels” value [6] was “Over 90%”.
With `Cc1cc(Nc2ncc(Cl)c(Nc3ccccc3S(=O)(=O)C(C)C)n2)c(OC(C)C)cc1C1CCN(CC(=O)NCCNc2cccc3c2C(=O)N(C2CCC(=O)NC2=O)C3=O)CC1` (stereo not shown) [Compound 6, 2-(4-(4-((5-chloro-4-((2-(isopropylsulfonyl)phenyl)amino)pyrimidin-2-yl)amino)-5-isopropoxy-2-methylphenyl)piperidin-1-yl)-N-(2-((2-(2,6-dioxopiperidin-3-yl)-1,3-dioxoisoindolin-4-yl)amino)ethyl)acetamide] the “duration of NPM-ALK degradation and ALK signaling inhibition” value [1] was “at least 24 hours”, the “time at which significant (>50%) NPM-ALK degradation was achieved” value [1] was 4 h and the “time of maximum degradation of NPM-ALK” value [1] was 16 h. The “reduction of the ALK fusion protein levels” value [1] was “Over 90%”, the hook effect [1] was “did not observe the “hook effect”” and the inhibition at 0.1 µM [2] was > 90%. For the same molecule, the “treatment time after which p-ALK was significantly inhibited” value [2] was 2 h, the inhibition at 0.1 µM [3] was > 90% and the “treatment time after which p-STAT3 was significantly inhibited” value [3] was 2 h. The “sensitivity of proliferation” value [4] was “less sensitive”, the “concentrations leading to significant cell death / toxic to cells” value [5] was “above 100 nM” and the highest plasma concentration [7] was 3,000 nM. The “time of highest plasma concentration post dosing” value [7] was 2 h, the “duration of EML4-ALK degradation and signaling pathway inhibition” value [6] was “at least 24 hours” and the “time of maximum degradation of EML4-ALK” value [6] was 16 h. The “reduction of EML4-ALK protein levels” value [6] was “Over 90%”, the clinical signs [8] was “no clinical signs were observed” and the tolerability [8] was “well tolerated”.
In the case of `Cc1cc(Nc2ncc(Cl)c(Nc3ccccc3S(=O)(=O)C(C)C)n2)c(OC(C)C)cc1C1CCN(CC(=O)NCCOCCOCCOCCOCCOCCNc2cccc3c2C(=O)N(C2CCC(=O)N(C)C2=O)C3=O)CC1` (stereo not shown) [Compound 7, 2-(4-(4-((5-Chloro-4-((2-(isopropylsulfonyl)phenyl)amino)pyrimidin-2-yl)amino)-5-isopropoxy-2-methylphenyl)piperidin-1-yl)-N-(17-((2-(1-methyl-2,6-dioxopiperidin-3-yl)-1,3-dioxoisoindolin-4-yl)amino)-3,6,9,12,15-pentaoxaheptadecyl)acetamide], the “effect on fused ALK (NPM-ALK) protein levels” value (from here on “effect on fused ALK”) [1] is reported as “did not reduce”, the “fold less active than corresponding degrader in signaling pathway inhibition” value [9] is reported as “over 10 fold” and the “cell growth inhibition” value [10] is reported as “incomplete inhibition”. The “sensitivity of proliferation” value [4] was “less sensitive” and the “effect on EML4-ALK protein levels” value [6] was “did not significantly affect”.
With `Cc1cc(Nc2ncc(Cl)c(Nc3ccccc3S(=O)(=O)C(C)C)n2)c(OC(C)C)cc1C1CCN(CC(=O)NCCNc2cccc3c2C(=O)N(C2CCC(=O)N(C)C2=O)C3=O)CC1` (stereo not shown) [Compound 8, 2-(4-(4-((5-chloro-4-((2-(isopropylsulfonyl)phenyl)amino)pyrimidin-2-yl)amino)-5-isopropoxy-2-methylphenyl)piperidin-1-yl)-N-(2-((2-(1-methyl-2,6-dioxopiperidin-3-yl)-1,3-dioxoisoindolin-4-yl)amino)ethyl)acetamide] the “effect on fused ALK” value [1] was “did not reduce”, the “fold less active than corresponding degrader in signaling pathway inhibition” value [9] was “over 10 fold” and the “cell growth inhibition” value [10] was “incomplete inhibition”. For the same molecule, the “sensitivity of proliferation” value [4] was “less sensitive” and the “effect on EML4-ALK protein levels” value [6] was “did not significantly affect”.
In the case of `Cc1cc(Nc2ncc(Cl)c(Nc3ccccc3S(=O)(=O)C(C)C)n2)c(OC(C)C)cc1C1CCNCC1` [ceritinib, reference compound], the “effect on fused ALK” value [1] is reported as “did not significantly change”, the “inhibition of downstream signaling compared with the degraders” value [9] is reported as “more potent” and the “concentrations leading to significant cell death / toxic to cells” value [5] is reported as “above 100 nM”. For the same molecule, the “effect on EML4-ALK protein levels” value [6] was “did not significantly affect”.

Source: paper PMC5924614 (European journal of medicinal chemistry, 2018)
